Test results from ChEMBL document CHEMBL4602605, “Fluoroquinolones structural and medicinal developments (2013-2018): Where are we now?” (Bioorg Med Chem, 2019).
≈ marks a conversion by molar mass, not a printed value. Each block holds one compound with its values, some of them ahead of it.

Columns and labels:
Assay type in all cases: functional
[1] = system: Staphylococcus epidermidis; assay: Antimicrobial activity against methicillin-susceptible Staphylococcus epidermidis clinical isolate incubated for 16 hrs by CLSI based agar dilution method
[2] = system: Staphylococcus epidermidis; assay: Antimicrobial activity against methicillin-resistant Staphylococcus epidermidis clinical isolate incubated for 16 hrs by CLSI based agar dilution method
[3] = system: Staphylococcus aureus; assay: Antimicrobial activity against methicillin-susceptible Staphylococcus aureus clinical isolate incubated for 16 hrs by CLSI based agar dilution method
[4] = system: Staphylococcus aureus; assay: Antimicrobial activity against methicillin-resistant Staphylococcus aureus clinical isolate incubated for 16 hrs by CLSI based agar dilution method
[5] = system: Escherichia coli; assay: Antimicrobial activity against Escherichia coli ATCC 700603 incubated for 16 hrs by CLSI-based agar dilution method; conditions: ATCC 700603, 16 h
[6] = system: Klebsiella pneumoniae; assay: Antimicrobial activity against Klebsiella pneumoniae ATCC 29522 incubated for 16 hrs by CLSI-based agar dilution method; conditions: ATCC 29522, 16 h
[7] = system: Escherichia coli; assay: Antibacterial activity against Escherichia coli NCDC 134 by single disk method
[8] = system: Pseudomonas aeruginosa; assay: Antibacterial activity against Pseudomonas aeruginosa NCDC 105 by single disk method
[9] = system: Bacillus subtilis; assay: Antibacterial activity against Bacillus subtilis NCDC 71 by single disk method
[10] = system: Paenibacillus polymyxa; assay: Antibacterial activity against Paenibacillus polymyxa NCDC 64 by single disk method
[11] = system: Staphylococcus aureus; assay: Antibacterial activity against Staphylococcus aureus NCDC 110 by single disk method
[12] = system: Mus musculus; assay: Analgesic activity in Swiss albino mouse assessed as acetic acid-induced writhing number at 50 mg/kg pretreated for 30 mins followed by acetic acid challenge and measured after 5 to 15 mins (reference value: 30.8 +/- 0.37)
[13] = system: Metaphire posthuma; assay: Anthelmintic activity against Pheretima posthuma assessed as mean paralysing time at 200 mg/ml
[14] = system: Escherichia coli; assay: Antimicrobial activity against ESBL non-producing Escherichia coli ATCC 25922
[15] = system: Klebsiella pneumoniae; assay: Antimicrobial activity against ESBL-producing Klebsiella pneumoniae ATCC 700603
[16] = system: Acinetobacter calcoaceticus; assay: Antimicrobial activity against Acinetobacter calcoaceticus ATCC 19606
[17] = system: Enterobacter cloacae; assay: Antimicrobial activity against Enterobacter cloacae ATCC 43560
[18] = system: Pseudomonas aeruginosa; assay: Antimicrobial activity against Pseudomonas aeruginosa ATCC 27853

Compound: COc1c(N2CCN(CC(O)Cn3cc([N+](=O)[O-])nc3C)C(C)C2)c(F)cc2c(=O)c(C(=O)O)cn(C3CC3)c12 (stereo unspecified)
- MIC [1]: 1 µg/mL (≈ 1.79 µM)
- MIC [2]: 1 µg/mL (≈ 1.79 µM)
- MIC [3]: 1 µg/mL (≈ 1.79 µM)
- MIC [4]: 32 µg/mL (≈ 57.3 µM)
- MIC [5]: 8 µg/mL (≈ 14.3 µM)
- MIC [6]: > 32 µg/mL

Compound: CCn1cc(C(=O)O)c(=O)c2cc(F)c(N3CCN(CC(=O)Nc4nc5c(Cl)ccc(Cl)c5s4)CC3)cc21
- MIC [7]: 60 µg/mL (≈ 104 µM)
- MIC [8]: 30 µg/mL (≈ 51.9 µM)
- MIC [9]: 20 µg/mL (≈ 34.6 µM)
- MIC [10]: 15 µg/mL (≈ 25.9 µM)
- MIC [11]: 40 µg/mL (≈ 69.1 µM)
- Activity [12]: 17.4
- Time [13]: 26.8 min

Compound: O=C(O)c1cn(C2CC2)c2cc(N3CCN(CC(O)Cn4cc([N+](=O)[O-])nc4Cl)CC3)c(F)cc2c1=O (stereo unspecified)
- MIC [1]: 2 µg/mL (≈ 3.74 µM)
- MIC [2]: 2 µg/mL (≈ 3.74 µM)
- MIC [3]: 4 µg/mL (≈ 7.48 µM)
- MIC [4]: 32 µg/mL (≈ 59.8 µM)
- MIC [5]: 16 µg/mL (≈ 29.9 µM)
- MIC [6]: > 32 µg/mL

Compound: O=C(CN1CCN(c2cc3c(cc2F)c(=O)c(C(=O)O)cn3C2CC2)CC1)Nc1nc2c(Cl)ccc(Cl)c2s1
- MIC [7]: 6 µg/mL (≈ 10.2 µM)
- MIC [8]: 65 µg/mL (≈ 110 µM)
- MIC [9]: 10 µg/mL (≈ 16.9 µM)
- MIC [10]: 30 µg/mL (≈ 50.8 µM)
- MIC [11]: 5 µg/mL (≈ 8.47 µM)
- Activity [12]: 15.6
- Time [13]: 32.6 min

Compound: COc1c(N2CCN(CC(=O)Nc3nc4ccc(Cl)c(Cl)c4s3)C(C)C2)c(F)cc2c(=O)c(C(=O)O)cn(C3CC3)c12 (stereo unspecified)
- MIC [7]: 70 µg/mL (≈ 110 µM)
- MIC [8]: 30 µg/mL (≈ 47.3 µM)
- MIC [9]: 25 µg/mL (≈ 39.4 µM)
- MIC [10]: 25 µg/mL (≈ 39.4 µM)
- MIC [11]: 10 µg/mL (≈ 15.8 µM)
- Activity [12]: 0.73
- Time [13]: 2.7 min

Compound: CCn1cc(C(=O)O)c(=O)c2cc(F)c(N3CCN(CC(O)Cn4cc([N+](=O)[O-])nc4Cl)CC3)c(OC)c21 (stereo unspecified)
- MIC [1]: 32 µg/mL (≈ 57.9 µM)
- MIC [2]: > 32 µg/mL
- MIC [3]: > 32 µg/mL
- MIC [5]: > 32 µg/mL
- MIC [6]: > 32 µg/mL

Compound: CCn1cc(C(=O)O)c(=O)c2cc(F)c(N3CCN(CC(=O)Nc4nc5ccc(Cl)cc5s4)CC3)cc21
- MIC [7]: 50 µg/mL (≈ 91.9 µM)
- MIC [8]: 10 µg/mL (≈ 18.4 µM)
- MIC [9]: 2 µg/mL (≈ 3.68 µM)
- MIC [10]: 25 µg/mL (≈ 46 µM)
- MIC [11]: 15 µg/mL (≈ 27.6 µM)
- Activity [12]: 15.2
- Time [13]: 23.6 min

Compound: COc1c(N2CCN(CC(=O)Nc3nc4c(Cl)cccc4s3)C(C)C2)c(F)cc2c(=O)c(C(=O)O)cn(C3CC3)c12 (stereo unspecified)
- MIC [7]: 60 µg/mL (≈ 100 µM)
- MIC [8]: 20 µg/mL (≈ 33.3 µM)
- MIC [9]: 75 µg/mL (≈ 125 µM)
- MIC [10]: 25 µg/mL (≈ 41.7 µM)
- MIC [11]: 4 µg/mL (≈ 6.67 µM)
- Activity [12]: 19.2
- Time [13]: 24.6 min

Compound: CCn1cc(C(=O)O)c(=O)c2cc(F)c(N3CCN(CC(=O)Nc4nc5ccc([N+](=O)[O-])cc5s4)CC3)cc21
- MIC [7]: 125 µg/mL (≈ 225 µM)
- MIC [8]: 55 µg/mL (≈ 99.2 µM)
- MIC [9]: 15 µg/mL (≈ 27 µM)
- MIC [10]: 75 µg/mL (≈ 135 µM)
- MIC [11]: 105 µg/mL (≈ 189 µM)
- Activity [12]: 17.8
- Time [13]: 27 min

Second part, led by results:

- MIC [14]: ≤ 0.05 µM
- MIC [15]: 1.63 µM (≈ 1 µg/mL)
- MIC [16]: 13 µM (≈ 8 µg/mL)
- MIC [17]: ≤ 0.05 µM
- MIC [18]: 1.63 µM (≈ 1 µg/mL)
Compound: O=C(O)c1cn([C@@H]2C[C@@H]2F)c2cc(N3CCN(Cn4nc(-c5cccnc5)n(-c5ccccc5)c4=S)CC3)c(F)cc2c1=O

- MIC [14]: ≤ 0.05 µM
- MIC [15]: 0.78 µM (≈ 0.503 µg/mL)
- MIC [16]: 6.21 µM (≈ 4 µg/mL)
- MIC [17]: ≤ 0.05 µM
- MIC [18]: 3.1 µM (≈ 2 µg/mL)
Compound: COc1ccccc1-c1nn(CN2CCN(c3cc4c(cc3F)c(=O)c(C(=O)O)cn4[C@@H]3C[C@@H]3F)CC2)c(=S)n1-c1ccccc1

- MIC [7]: 8 µg/mL (≈ 14.4 µM)
- MIC [8]: 15 µg/mL (≈ 27 µM)
- MIC [9]: 4 µg/mL (≈ 7.19 µM)
- MIC [10]: 15 µg/mL (≈ 27 µM)
- MIC [11]: 3 µg/mL (≈ 5.4 µM)
Compound: O=C(CN1CCN(c2cc3c(cc2F)c(=O)c(C(=O)O)cn3C2CC2)CC1)Nc1nc2ccc(Cl)cc2s1
- Activity [12]: 13.8
- Time [13]: 26 min

- MIC [14]: ≤ 0.05 µM
- MIC [15]: 1.55 µM (≈ 0.999 µg/mL)
- MIC [16]: 12.4 µM (≈ 8.01 µg/mL)
- MIC [17]: ≤ 0.05 µM
- MIC [18]: 6.21 µM (≈ 4 µg/mL)
Compound: COc1cccc(-c2nn(CN3CCN(c4cc5c(cc4F)c(=O)c(C(=O)O)cn5[C@@H]4C[C@@H]4F)CC3)c(=S)n2-c2ccccc2)c1

- MIC [14]: ≤ 0.05 µM
- MIC [15]: 1.59 µM (≈ 1 µg/mL)
- MIC [16]: 12.7 µM (≈ 8 µg/mL)
- MIC [17]: ≤ 0.05 µM
- MIC [18]: 0.79 µM (≈ 0.497 µg/mL)
Compound: O=C(O)c1cn([C@@H]2C[C@@H]2F)c2cc(N3CCN(Cn4nc(-c5ccncc5)n(Cc5ccccc5)c4=S)CC3)c(F)cc2c1=O

- MIC [14]: ≤ 0.05 µM
- MIC [15]: 1.59 µM (≈ 1 µg/mL)
- MIC [16]: 6.35 µM (≈ 4 µg/mL)
- MIC [17]: ≤ 0.05 µM
- MIC [18]: 1.59 µM (≈ 1 µg/mL)
Compound: O=C(O)c1cn([C@@H]2C[C@@H]2F)c2cc(N3CCN(Cn4nc(-c5cccc(O)c5)n(-c5ccccc5)c4=S)CC3)c(F)cc2c1=O

- MIC [14]: ≤ 0.04 µM
- MIC [15]: 1.47 µM (≈ 0.999 µg/mL)
- MIC [16]: 11.8 µM (≈ 8.02 µg/mL)
- MIC [17]: ≤ 0.04 µM
- MIC [18]: 1.47 µM (≈ 0.999 µg/mL)
Compound: O=C(O)c1cn([C@@H]2C[C@@H]2F)c2cc(N3CCN(Cn4nc(-c5cc6ccccc6cn5)n(Cc5ccccc5)c4=S)CC3)c(F)cc2c1=O
